# Patent US6342601B1, “Compounds” (AstraZeneca AB, priority 1997, dated 2002)
# Structures can show the parent of a compound that is named as a salt.
row,melting point,Compound
1,154 to 156 °C,"CC(C)Cc1nn(C)c(=O)c2cc(C(O)c3cccnc3)sc12 (stereo not drawn) (as salt: hydrochloride) [Example 40, 2-[(1-Hydroxy-1-pyridin-3-yl)methyl]-5-methyl-7-(2-methylpropyl)thieno[2,3-d]pyridazin-4(5H)-one Hydrochloride]"
2,> 230 °C (dec.),"CC(C)Cc1nn(C)c(=O)c2cc(Cc3cnc4ccccc4c3)sc12 (as salt: hydrochloride) [Example 44, 5-Methyl-7-(2-methylpropyl)-2-(3-quinolinylmethyl)thieno[2,3-d]pyridazin-4(5H)-one Hydrochloride]"
3,110 to 112 °C,"CC(C)Cc1nn(C)c(=O)c2cn(Cc3cccc4ccccc34)cc12 [Example 1, 2,6-Dihydro-2-methyl-4-(2-methylpropyl)-6-(1-naphthalenylmethyl)-1H-pyrrolo[3,4-d]pyridazin-1-one]"
4,96 to 98 °C,"COCCn1nc(CC(C)C)c2cn(Cc3cccc4ccccc34)cc2c1=O [Example 2, 2,6-Dihydro-2-(2-methoxyethyl)-4-(2-methylpropyl)-6-(1-naphthalenylmethyl)-1H-pyrrolo[3,4-d]pyridazin-1-one]"
5,167 °C,"CC(C)Cc1nn(C)c(=O)c2c(SCCCC(=O)O)n(Cc3cccc4ccccc34)cc12 [Example 4, 4-{[2,6-Dihydro-2-methyl-4-(2-methylpropyl)-6-(1-naphthalenylmethyl)-1-oxo-1H-pyrrolo[3,4-d]pyridazin-7-yl]thio}butanoic Acid]"
6,164 to 166 °C,"CC(C)Cc1nn(C)c(=O)c2c([S+]([O-])CCCO)n(Cc3cccc4ccccc34)cc12 (stereo not drawn) [Example 5 (A), 2,6-Dihydro-7-[(3-hydroxypropyl)sulfinyl]-2-methyl-4-(2-methylpropyl)-6-(1-naphthalenylmethyl)-1H-pyrrolo[3,4-d]pyridazin-1-one]"
7,165 to 167 °C,"CC(C)Cc1nn(C)c(=O)c2cc(C(O)c3cccc4ccccc34)sc12 (stereo not drawn) [Example 6, 2-[1-Hydroxy-1-(1-naphthalenyl)methyl]-5-methyl-7-(2-methylpropyl)thieno[2,3-d]pyridazin-4(5H)-one]"
8,121 °C,"CC(C)Cc1nn(C)c(=O)c2cc(C(=O)c3cccc4ccccc34)sc12 [Example 9, 5-Methyl-7-(2-methylpropyl)-2-(1-naphthalenylcarbonyl)thieno[2,3-d]pyridazin-4(5H)-one]"
9,60 to 65 °C,"CC(C)Cc1nn(C)c(=O)c2c([S+]([O-])CCCO)c(Cc3cccc4ccccc34)sc12 (stereo not drawn) [Example 10, 3[(3-Hydroxypropyl)sulfinyl]-5-methyl-7-(2-methylpropyl)-2-(1-naphthalenylmethyl)thieno[2,3-d]pyridazin-4(5H)-one]"
10,154 to 156 °C,"CC(C)Cc1nn(C)c(=O)c2c(SCCCC(=O)O)c(Cc3cccc4ccccc34)sc12 [Example 11, 4-{[4,5-Dihydro-5-methyl-7-(2-methylpropyl)-2-(1-naphthalenylmethyl)-4-oxothieno[2,3-d]pyridazin-3-yl]thio}butanoic Acid]"
11,160 to 163 °C,"CC(C)Cc1nn(C)c(=O)c2c(S(=O)(=O)CCCO)c(Cc3cccc4ccccc34)sc12 [Example 13, 3-[(3-Hydroxypropyl)sulfonyl]-5-methyl-7-(2-methylpropyl)-2-(1-naphthalenylmethyl)thieno[2,3-d]pyridazin-4(5H)-one]"
12,97 to 98 °C,"CC(C)Cc1nn(C)c(=O)c2cc(Cc3ccccc3)sc12 [Example 15, 5-Methyl-7-(2-methylpropyl)-2-phenylmethylthieno[2,3-d]pyridazin-4(5H)-one]"
13,60 to 65 °C,"CC(C)Cc1nn(C)c(=O)c2c(SCCCO)c(Cc3ccccc3)sc12 [Example 16, 3-[(3-Hydroxypropy)thio]-5-methyl-7-(2-methylpropyl)-2-phenylmethylthieno[2,3-d]pyridazin-4(5H)-one]"
14,105 to 107 °C,"CC(C)Cc1nn(C)c(=O)c2c(S(=O)(=O)CCCO)c(Cc3ccccc3)sc12 [Example 17, 3-[(3-Hydroxypropyl)sulfonyl]-5-methyl-7-(2-methylpropyl)-2-phenylmethylthieno[2,3-d]pyridazin-4(5H)-one]"
15,104 °C,"CC(C)Cc1nn(C)c(=O)c2cn(Cc3ccccc3)cc12 [Example 18, 2,6-Dihydro-2-methyl-4-(2-methylpropyl)-6-phenylmethyl-1H-pyrrolo[3,4-d]pyridazin-1-one]"
16,131 to 132 °C,"CC(C)Cc1nn(C)c(=O)c2c(Sc3ccccn3)n(Cc3ccccc3)cc12 [Example 19, 2,6-Dihydro-2-methyl-4-(2-methylpropyl)-6-phenylmethyl-7-(2-pyridinylthio)-1H-pyrrolo[3,4-d]pyridazin-1-one]"
17,91 to 92 °C,"CC(C)Cc1nn(C)c(=O)c2c(SCCCO)n(Cc3ccccc3)cc12 [Example 20, 2,6-Dihydro-7-[(3-hydroxypropyl)thio]-2-methyl-4-(2-methylpropyl)-6-phenylmethyl-1H-pyrrolo[3,4-d]pyridazin-1-one]"
18,154.5 to 155 °C,"COc1cc(Cn2cc3c(CC(C)C)nn(C)c(=O)c3c2)cc(OC)c1OC [Example 21, 2,6-Dihydro-2-methyl-4-(2-methylpropyl)-6-(3,4,5-trimethoxyphenyl)methyl-1H-pyrrolo[3,4-d]pyridazin-1-one]"
19,221 to 222 °C,"CC(C)Nc1nn(C)c(=O)c2cn(Cc3cccc4ccccc34)cc12 [Example 22, 2,6-Dihydro-2-methyl-6-(1-naphthalenylmethyl)-4-(1-methylethyl)amino-1H-pyrrolo[3,4-d]pyridazin-1-one]"
20,91 to 93 °C,"CC(C)Cc1nn(C)c(=O)c2cn(Cc3ccncc3)cc12 [Example 23, 2,6-Dihydro-2-methyl-4-(2-methylpropyl)-6-(4-pyridinyl)methyl-1H-pyrrolo[3,4-d]pyridazin-1-one]"
21,166 to 167 °C,"CC(C)Cc1nn(C)c(=O)c2cn(Cc3cccc4ccccc34)nc12 [Example 32, 2,5-Dihydro-5-methyl-7-(2-methylpropyl)-2-(1-naphthalenylmethyl)-4H-pyrazolo[3,4-d]pyridazin-4-one]"
22,163 to 164 °C,CC(C)Cc1nn(C)c(=O)c2nn(Cc3cccc4ccccc34)cc12 [Example 33]
23,141 to 142 °C,"CC(C)Cc1nn(C)c(=O)c2c(SCCCO)n(Cc3cccc4ccccc34)nc12 [Example 34, 2,5-Dihydro-3-[(3-hydoxypropyl)thio]-5-methyl-7-(2-methylpropyl)-2-(1-naphthalenylmethyl)-4H-pyrazolo[3,4-d]pyridazin-4-one]"
24,110 to 112 °C,"CC(C)Cc1nn(C)c(=O)c2cc(C(O)c3cccc4ccccc34)oc12 (stereo not drawn) [Example 35, 2-[1-Hydroxy-1-(1-naphthalenyl)methyl]-5-methyl-7-(2-methylpropyl)furo[2,3-d]pyridazin-4(5H)one]"
25,73 to 75 °C,"CC(C)Cc1nn(C)c(=O)c2cc(Cc3cccc4ccccc34)oc12 [Example 36, 5-Methyl-7-(2-methylpropyl)-2-(1-naphthalenylmethyl)furo[2,3-d]pyridazin-4(5H)one]"
26,106 to 108 °C,"CC(C)Cc1nn(C)c(=O)c2cc(C(O)c3cccc(C#N)c3)oc12 (stereo not drawn) [Example 37, 2-[1-Hydroxy-1-(3-cyanophenyl)methyl]-5-methyl-7-(2-methylpropyl)furo[2,3-d]pyridazin4(5H)one]"
27,76 to 78 °C,"CC(C)Cc1nn(C)c(=O)c2cc(Cc3cccc(C#N)c3)oc12 [Example 38, 2-(3-Cyanophenyl)methyl-5-methyl-7-(2-methylpropyl)furo[2,3-d]pyridazin-4(5H)one]"
28,112 to 114 °C,"CC(C)Cc1nn(C)c(=O)c2cc(Cc3ccccc3C(F)(F)F)sc12 [Example 39, 2-(2-Trifluoromethylphenyl)methyl-5-methyl-7-(2-methylpropyl)thieno[2,3-d]pyridazin-4(5H)-one]"
29,118 to 119 °C,"CC(C)Cc1nn(C)c(=O)c2cc(Cc3cccnc3)sc12 [Example 41, 5Methyl-7-(2-methylpropyl)-2-(3-pyridinylmethyl)thieno[2,3-d]pyridazin-4(5H)-one]"
30,85 to 86 °C,"CC(C)Cc1nn(C)c(=O)c2cc(Cc3c(F)cccc3Cl)sc12 [Example 42, 2-(2-Chloro-6-fluorophenyl)methyl-5-methyl-7-(2-methylpropyl)thieno[2,3-d]pyridazin-4(5H)-one]"
